# Several values for one entry are separate records, joined by “and”; a condition that tells them apart may be missing. Equal values may be shown once. Peptide text beside a SMILES is read from it. * marks the point of attachment. pNA = O=[N+]([O-])c1ccc(N*)cc1; Boc = CC(C)(C)OC(=O)*
# Key:
# Genome polyprotein [1] = molecular target: T1, Genome polyprotein (dengue virus type 2, UniProt P29990); type: functional, Thailand/16681/1984
# Genome polyprotein [2] = molecular target: T1, Genome polyprotein; type: functional, Thailand/16681/1984; remark: listed apart in the source
# T1 sequence (P29990 1346-1475 limits assumed): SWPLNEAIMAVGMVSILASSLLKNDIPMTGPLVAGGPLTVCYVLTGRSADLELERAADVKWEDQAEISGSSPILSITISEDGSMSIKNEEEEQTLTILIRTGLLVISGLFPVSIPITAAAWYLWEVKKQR
# T1 sequence (P29990 1476-2093 limits assumed): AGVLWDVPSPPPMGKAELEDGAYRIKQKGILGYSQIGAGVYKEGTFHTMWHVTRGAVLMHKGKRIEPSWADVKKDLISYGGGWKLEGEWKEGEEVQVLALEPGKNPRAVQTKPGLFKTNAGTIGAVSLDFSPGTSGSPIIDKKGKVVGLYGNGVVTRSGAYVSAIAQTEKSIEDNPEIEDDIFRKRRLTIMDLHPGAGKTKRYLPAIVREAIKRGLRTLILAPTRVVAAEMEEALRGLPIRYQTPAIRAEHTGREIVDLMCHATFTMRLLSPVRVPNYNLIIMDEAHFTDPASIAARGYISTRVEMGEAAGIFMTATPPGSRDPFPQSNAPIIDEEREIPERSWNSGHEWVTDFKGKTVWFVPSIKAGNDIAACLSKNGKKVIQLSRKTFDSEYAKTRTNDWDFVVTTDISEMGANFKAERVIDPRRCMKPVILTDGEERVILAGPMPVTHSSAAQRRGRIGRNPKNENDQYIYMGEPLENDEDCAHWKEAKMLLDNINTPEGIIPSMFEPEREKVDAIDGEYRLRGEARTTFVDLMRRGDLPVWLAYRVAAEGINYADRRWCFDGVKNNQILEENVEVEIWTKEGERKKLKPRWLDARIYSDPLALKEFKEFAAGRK
SMILES,IC50 (Genome polyprotein [1]),IC50 (Genome polyprotein [2])
N=C(N)NCCC[C@H](NC(=O)c1nccs1)C(=O)N[C@@H](CCCCN)C(=O)N[C@@H](C(N)=O)c1ccc(OCc2ccc(C(F)(F)F)cc2)cc1,1.46 µM and 1.87 µM and 1.17 µM and 2.77 µM and 3.21 µM and 2.73 µM and 3 µM and 2.69 µM and 2.58 µM and 2.57 µM (2×) and 2.84 µM (2×) and 3.15 µM and 3.2 µM and 2.52 µM (2×) and 2.33 µM and 2.17 µM and 2.34 µM and 2.39 µM and 2.31 µM and 2.49 µM and 2.93 µM and 2.95 µM and 2.64 µM and 3.09 µM and 2.26 µM and 2.59 µM and 2.92 µM and 2.68 µM and 2.2 µM and 2.3 µM and 2.12 µM and 1.71 µM and 1.91 µM and 1.72 µM and 2.55 µM and 2.1 µM,
Cc1cc(C(=O)Nc2ccc3c(c2)CNC3)c2cn[nH]c2c1,,> 99.5 µM
Cc1ccc(S(=O)(=O)CNC(=O)[C@H](Nc2ccc3c(c2)CNC3)c2cc(Cl)cc3[nH]ncc23)cc1,,> 99.5 µM
CC(C)(C)c1ccc(Cl)cc1C(=O)Nc1ccc2c(c1)CNC2,,> 99.5 µM
Cc1n[nH]c2nc(Cl)cc(C(=O)Nc3ccc4c(c3)CNC4)c12,,> 99.5 µM
Nc1cc(Cl)cc(C(=O)Nc2ccc3c(c2)CNC3)c1N,> 100 µM,
O=C(Cc1cccc2[nH]ncc12)Nc1ccc2c(c1)CNC2,,> 99.5 µM
C=C1C[C@H](c2cccc(CN)c2)[C@@H](c2cc(Cl)cc(NC(=O)OCc3ccccc3)c2)C1,,> 99.5 µM
Cc1c(C(=O)Nc2cccc(-c3nnn[nH]3)c2)sc2ccccc12,75.2 µM,
O=C(Nc1ccc2c(c1)CNC2)c1cc(Cl)ccc1SC1CCCC1,,> 99.5 µM
Cc1ccncc1-c1cc(CN)cc([C@@H]2C[C@H]2c2cc(Cl)cc(NC(=O)OCc3ccccc3)c2)c1,> 100 µM,
O=C(Nc1ccc2c(c1)CNC2)c1cc(F)cc2[nH]nnc12,,> 99.5 µM
O=C(Nc1ccc2c(c1)CNC2)c1cc(Br)cc2[nH]c(Cc3ccccc3)nc12,> 100 µM and 53.9 µM,
O=C(O)c1cc(Cc2c[nH]c3ccc(Cl)cc23)cc(C2CC2)n1,> 100 µM,
N#C[C@H](Nc1ccc2c(c1)CNC2)c1n[nH]c2cc(C(F)(F)F)ccc12,> 100 µM,
COC(=O)CNC(=O)[C@H](Nc1ccc2c(c1)CNC2)c1cc(Cl)cc(C2CC2)c1,,> 99.5 µM
N[C@H]1CCc2cc(NC(=O)c3cc(Cl)cc4[nH]ncc34)ccc21,59.2 µM,
O=C(Nc1ccc2c(c1)CNC2)N1C[C@H](C(F)F)C2(CC2)C1,,> 99.5 µM
Cc1c(C(=O)Nc2cc(CCCN)ccn2)cc(C#N)n1C,,> 99.5 µM
CC(C)NC(=O)[C@H](Nc1ccc2c(c1)C(=O)OC2)c1cc(Cl)cc2[nH]ncc12,,> 99.5 µM
CC(C)c1nc2c(C(=O)Nc3ccc4c(c3)CNC4)cc(Br)cc2[nH]1,> 100 µM,
N#Cc1cccc(-c2nc3c(C(=O)Nc4cccnc4)cc(Cl)cc3[nH]2)c1,> 100 µM,
CC(C)NC(=O)[C@H](Nc1ccc2c(c1)CNC2)c1cc(Cl)cc2[nH]c(-c3ccccc3)nc12,,10.2 µM and 4.1 µM and 35.8 µM

SMILES,IC50 (Genome polyprotein [1]),IC50 (Genome polyprotein [2])
N#Cc1cccc(-c2nc3c(C(=O)Nc4ccccc4)cc(Cl)cc3[nH]2)c1,> 100 µM,
N#Cc1cccc(-c2nc3c(C(=O)NCc4ccccc4)cc(Cl)cc3[nH]2)c1,> 100 µM,
O=C1OCc2ccc(NC(=O)[C@H]3CCNC34CCCC4)cc21,,> 99.5 µM
C=CC[C@H](Nc1cc([C@H]2CCOC2)ccn1)c1cc(C2CC2)n(C)n1,,> 99.5 µM
Cc1c(C(=O)Nc2cc(C(=O)N3CCn4nccc43)ccn2)cc(C2CC2)n1C,> 100 µM,
O=C(Nc1ccc2c(c1)CNC2)c1cc(Cl)cc2nn[nH]c12,,> 99.5 µM
O=C(Nc1ccc2c(c1)CNC2)c1cc(F)cc(C=C2CCS(=O)(=O)CC2)c1,,> 99.5 µM
CC(C)CNC(=O)c1cc(Cl)cc2[nH]c(-c3cccc(C#N)c3)nc12,> 100 µM,
Cc1c(C(=O)Nc2ccc3c(c2)C(=O)N(C)C3)cc(C2CC2)n1C,,> 99.5 µM
Cc1cc(NC(=O)c2cc(C3CC3)n(C)c2C)ccc1N1CCCC1=O,,> 99.5 µM
Cc1c(C(=O)Nc2ccc3c(c2)CCCC(=O)N3)cc(C2CC2)n1C,,> 99.5 µM
CS(=O)(=O)Nc1cccc(C(=O)Nc2ccc3c(c2)CNC3)c1,,> 99.5 µM
O=C(Nc1ccc2c(c1)CNC2)c1cc(F)cc(C2=CCCOC2)c1,,> 99.5 µM
Cc1c(C(=O)Nc2cccc(-c3ccc(=O)[nH]n3)c2)cc(C2CC2)n1C,,> 99.5 µM
COC(=O)[C@H](C)n1cc2c(C(=O)Nc3ccc4c(c3)CNC4)cc(Cl)cc2n1,,> 99.5 µM
O=C(Nc1cc(Cl)cc(C(=O)Nc2ncc(C3CNC3)s2)c1)OCc1ccccc1,> 100 µM,
C=CC[C@H]1NCc2cc(NC(=O)c3ccc4c(c3)CC(=O)N4)ccc21,,> 99.5 µM
CC(C)c1nn(C)cc1-c1cc(F)cc(C(=O)Nc2ccc3c(c2)CNC3)c1,,> 99.5 µM
Brc1cc(CNc2ccc3c(c2)CNC3)c2cc[nH]c2c1,,> 99.5 µM
COc1cc(C(=O)Nc2ccc3c(c2)CNC3)cc2ccoc12,,> 99.5 µM
O=C1OCc2ccc(NC(=O)c3cc(F)cc4[nH]ncc34)cc21,,> 99.5 µM
COc1ccccc1-c1nc2c(C(=O)Nc3ccc4c(c3)CNC4)cc(F)cc2[nH]1,> 100 µM,
CCSc1ccc(Cl)cc1C(=O)Nc1ccc2c(c1)CNC2,,> 99.5 µM

SMILES,IC50 (Genome polyprotein [1]),IC50 (Genome polyprotein [2])
Cc1c(CN)c(C(=O)Nc2cc(-c3cccnc3)ccn2)nn1C,,> 99.5 µM
CC[C@H](CO)NC(=O)Cn1ccnc(N2CC[C@H](CO)C2)c1=O,> 100 µM,
NCc1cccc(NC(=O)c2cccc(CN)c2)c1,> 100 µM,
Cc1cccc(-c2nc3c(C(=O)Nc4ccc5c(c4)CNC5)cc(F)cc3[nH]2)c1,,8.87 µM and 6.46 µM
Cc1ccccc1-c1nc2c(C(=O)Nc3ccc4c(c3)CNC4)cc(F)cc2[nH]1,,3.46 µM and 3.38 µM
CO[C@H](C)Cn1cc2c(C(=O)Nc3ccc4c(c3)CNC4)cc(Cl)cc2n1,> 100 µM,
N#Cc1cccc(-c2nc3c(C(=O)NCc4ccccn4)cc(Cl)cc3[nH]2)c1,> 100 µM,
O=C(Nc1cc(-c2cccnc2)ccn1)c1nc(Br)n2c1CNCC2,,> 99.5 µM
N#Cc1cccc(-c2nc3c(C(=O)NCc4cccnc4)cc(Cl)cc3[nH]2)c1,> 100 µM,
O=C(Nc1ccc2c(c1)CNC2)c1cc(F)cc2[nH]c(-c3cnccc3O)nc12,,69.7 µM
NCc1csc2cc(C(=O)Nc3ccc4c(c3)CNC4)ccc12,83.1 µM and > 100 µM,
O=C(Nc1ccc2c(c1)CNC2)c1cc(Cl)cc2c1cnn2C[C@H]1CCCO1,,> 99.5 µM
C[C@]1(O)C(=O)Nc2cc(F)cc(C(=O)Nc3ccc4c(c3)CNC4)c21,,> 99.5 µM
O=C(NCC1CCCCC1)[C@H]1CCCN1C(=O)Nc1ccc2c(c1)CNC2,,> 99.5 µM
O=C1Cc2c(cc(F)cc2C(=O)Nc2cc([C@H]3CCOC3)ccn2)N1,,> 99.5 µM
O=C(Nc1cc(Cl)cc(-c2cc3cc(C(=O)O)ncn3c2)c1)OCc1ccccc1,50.1 µM,
Cc1c(C(=O)Nc2ccc3c(c2)CS(=O)(=O)C3)cc(C2CC2)n1C,,> 99.5 µM
N#C[C@H](Nc1ccc2c(c1)CNC2)c1cc(Cl)cc2c1OCC2,,> 99.5 µM
O=C(Nc1cc(-c2cccnc2)ccn1)c1cc2n(c1)CCC2,,> 99.5 µM
CCc1cc(C(=O)Nc2ccc3c(c2)CNC3)cc2cn[nH]c12,,> 99.5 µM
O=C(Nc1ccc2c(c1)CNC2)c1cc(Cl)cc(C(F)(F)F)n1,,22.5 µM
O=C(Nc1ccc2c(c1)CNC2)c1cccc2c1OCO2,,> 99.5 µM
O=C(Nc1ccc2c(c1)CNC2)c1cccc2nc(C(F)(F)F)[nH]c12,,> 99.5 µM

SMILES,IC50 (Genome polyprotein [1]),IC50 (Genome polyprotein [2])
Cc1c(C(=O)Nc2cc(-c3cccnc3)ccn2)c2ccccc2n1C,,> 99.5 µM
C#C[C@H](Nc1ccc2c(c1)CNC2)c1cccc2c1CCNC2=O,,> 99.5 µM
O=C(Nc1ccc2c(c1)CNC2)c1cc(F)c2[nH]nnc2c1,,> 99.5 µM
Cc1c(C(=O)Nc2cccc(-c3cncnc3O)c2)cc(C2CC2)n1C,,> 99.5 µM
NCc1cc(Cl)cc(C(=O)Nc2cccc(-c3nn[nH]n3)c2)c1,> 100 µM,
O=C1CC[C@H]2[C@H](CCN2C(=O)c2ccc3c(c2)CNC3)N1,,> 99.5 µM
COCCNC(=O)[C@H](Nc1cccc([C@H]2CCOC2)c1)c1cc(Br)cc2[nH]ccc12,,> 99.5 µM
O=C(NCc1cccnc1)[C@H](Nc1ccc2c(c1)CNC2)c1cc(Cl)cc2[nH]ncc12,> 100 µM,
N[C@H]1CCN(c2ccc(NS(=O)(=O)c3ccc(Oc4ccccc4Cl)cc3)cc2)C1,> 100 µM,
O=C(Nc1ccc2c(c1)CNC2)c1cc(F)c2[nH]c(=O)[nH]c2c1,,> 99.5 µM
O=C1C[C@H]2CN(C(=O)Nc3ccc4c(c3)CNC4)CC[C@H]2N1,,> 99.5 µM
O=C(NCC(F)F)[C@H](Nc1ccc2c(n1)CNC2)c1cc(Cl)cc(C2CC2)c1,,> 296 µM
Cc1cc(NC(=O)c2cc(C3CC3)n(C)c2C)cnc1N1CCCCC1,,> 99.5 µM
Clc1ccc2[nH]ncc2c1[C@@H]1C[C@H]1c1ccc2c(c1)CNC2,,> 99.5 µM
O=C(Nc1ccc2c(c1)CNC2)c1cc(Cl)cc2c1NCCC2,> 100 µM,
Cc1cc(C(=O)Nc2cc(-c3cccnc3)ccn2)nn1CCN,,> 99.5 µM
CSCC[C@H](NC(=O)OC(C)(C)C)C(=O)N1CCC[C@H]1C(=O)Nc1ccc([N+](=O)[O-])cc1 (Boc-Met-Pro-pNA),,> 99.5 µM
CSCC[C@H](N)C(=O)N1CCC[C@H]1C(=O)Nc1ccc([N+](=O)[O-])cc1 (H-Met-Pro-pNA),,> 99.5 µM
O=C(Nc1ccccc1)OCc1ccccc1 [BENZYL PHENYLCARBAMATE],,> 99.5 µM
O=C(Nc1ccccc1)Oc1ccccc1 [PHENYL PHENYLCARBAMATE],,> 59.8 µM

# Source: ChEMBL document CHEMBL5604063, “ASAP - DENV-2 NS2B-NS3 protease fluorescence dose response” (2024)
